Measured values from ChEMBL document CHEMBL1201862, “PubChem BioAssay data set” (2004).
The source made the active and inactive calls.

Tests used:
[1] = target: Genome polyprotein (dengue virus type 2, UniProt P29990); assay: flavivirus cap methylation enzyme inhibition – biochemical, confirmation dose response, primary screen (AID 588689); type: functional
[2] = target: Wee1-like protein kinase (Homo sapiens, UniProt P30291); assay: Dose Response Cell-based Assay for Inhibitors of Wee1 Degradation. [Related pubchem assays: 1410, 1321 ]; type: functional
[3] = target: Bifunctional protein GlmU (Mycobacterium tuberculosis, UniProt P9WMN3); assay: Inhibitors of Mycobacterial Glucosamine-1-phosphate acetyl transferase (GlmU). Secondary screen.; parameters: species or system Mycobacterium tuberculosis H37Rv
[4] = target: T1, Caspase-6 (Homo sapiens, UniProt P55212); assay: inhibition of CASP6 peptide cleavage – biochemical, VEID-R110 fluorescence, cherry-pick, dose response (AID 720632)
T1 sequence (P55212 whole entry): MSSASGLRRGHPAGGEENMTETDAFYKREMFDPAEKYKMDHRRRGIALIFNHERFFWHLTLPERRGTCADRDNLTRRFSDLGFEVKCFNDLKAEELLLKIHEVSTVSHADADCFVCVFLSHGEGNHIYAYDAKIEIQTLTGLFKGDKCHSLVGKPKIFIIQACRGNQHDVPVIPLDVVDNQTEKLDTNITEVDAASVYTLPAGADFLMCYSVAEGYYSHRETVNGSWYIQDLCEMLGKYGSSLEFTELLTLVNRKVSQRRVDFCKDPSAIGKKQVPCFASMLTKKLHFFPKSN

[5] = CCR5-tropic HIV-1 fusion blockers – cell-based, CCR5-tropic Env, dose response (AID 2279); type: functional
[6] = rise of 2N DNA cells, HeLa – IC50, dose response (AID 1117349); type: functional, cell-based

Wee1-like protein kinase, sequence (P30291 whole entry): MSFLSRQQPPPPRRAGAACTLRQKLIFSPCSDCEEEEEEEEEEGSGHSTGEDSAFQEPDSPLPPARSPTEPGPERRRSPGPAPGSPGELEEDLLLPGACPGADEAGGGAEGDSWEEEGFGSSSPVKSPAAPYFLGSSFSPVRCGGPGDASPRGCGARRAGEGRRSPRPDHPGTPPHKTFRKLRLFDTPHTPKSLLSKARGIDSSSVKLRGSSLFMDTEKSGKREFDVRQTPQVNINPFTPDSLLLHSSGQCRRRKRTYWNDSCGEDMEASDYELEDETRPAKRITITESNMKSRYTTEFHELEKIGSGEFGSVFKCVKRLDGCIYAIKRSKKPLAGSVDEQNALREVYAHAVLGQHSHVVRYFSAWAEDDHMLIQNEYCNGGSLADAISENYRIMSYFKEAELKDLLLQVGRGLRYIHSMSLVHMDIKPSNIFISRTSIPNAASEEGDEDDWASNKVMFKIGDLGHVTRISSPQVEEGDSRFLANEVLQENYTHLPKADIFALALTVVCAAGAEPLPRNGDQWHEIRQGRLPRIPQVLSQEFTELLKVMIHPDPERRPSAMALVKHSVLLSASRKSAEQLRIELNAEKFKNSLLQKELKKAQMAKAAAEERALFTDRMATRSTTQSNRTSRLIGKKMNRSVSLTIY
Bifunctional protein GlmU, sequence (P9WMN3 whole entry): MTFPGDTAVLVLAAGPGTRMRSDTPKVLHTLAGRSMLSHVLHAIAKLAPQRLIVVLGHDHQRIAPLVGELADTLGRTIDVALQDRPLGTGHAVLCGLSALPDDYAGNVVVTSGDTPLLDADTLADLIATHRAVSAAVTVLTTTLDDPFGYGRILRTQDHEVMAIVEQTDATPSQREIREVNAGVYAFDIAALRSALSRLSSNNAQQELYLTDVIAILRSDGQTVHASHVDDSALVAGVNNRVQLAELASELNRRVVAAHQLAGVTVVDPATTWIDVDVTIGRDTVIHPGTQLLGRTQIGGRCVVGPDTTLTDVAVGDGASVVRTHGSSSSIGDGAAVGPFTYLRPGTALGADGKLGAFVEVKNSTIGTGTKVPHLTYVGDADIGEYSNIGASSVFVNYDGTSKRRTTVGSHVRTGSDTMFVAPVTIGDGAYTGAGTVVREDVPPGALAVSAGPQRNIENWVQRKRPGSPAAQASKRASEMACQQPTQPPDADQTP
Genome polyprotein, sequence (P29990 2492-3391 limits assumed): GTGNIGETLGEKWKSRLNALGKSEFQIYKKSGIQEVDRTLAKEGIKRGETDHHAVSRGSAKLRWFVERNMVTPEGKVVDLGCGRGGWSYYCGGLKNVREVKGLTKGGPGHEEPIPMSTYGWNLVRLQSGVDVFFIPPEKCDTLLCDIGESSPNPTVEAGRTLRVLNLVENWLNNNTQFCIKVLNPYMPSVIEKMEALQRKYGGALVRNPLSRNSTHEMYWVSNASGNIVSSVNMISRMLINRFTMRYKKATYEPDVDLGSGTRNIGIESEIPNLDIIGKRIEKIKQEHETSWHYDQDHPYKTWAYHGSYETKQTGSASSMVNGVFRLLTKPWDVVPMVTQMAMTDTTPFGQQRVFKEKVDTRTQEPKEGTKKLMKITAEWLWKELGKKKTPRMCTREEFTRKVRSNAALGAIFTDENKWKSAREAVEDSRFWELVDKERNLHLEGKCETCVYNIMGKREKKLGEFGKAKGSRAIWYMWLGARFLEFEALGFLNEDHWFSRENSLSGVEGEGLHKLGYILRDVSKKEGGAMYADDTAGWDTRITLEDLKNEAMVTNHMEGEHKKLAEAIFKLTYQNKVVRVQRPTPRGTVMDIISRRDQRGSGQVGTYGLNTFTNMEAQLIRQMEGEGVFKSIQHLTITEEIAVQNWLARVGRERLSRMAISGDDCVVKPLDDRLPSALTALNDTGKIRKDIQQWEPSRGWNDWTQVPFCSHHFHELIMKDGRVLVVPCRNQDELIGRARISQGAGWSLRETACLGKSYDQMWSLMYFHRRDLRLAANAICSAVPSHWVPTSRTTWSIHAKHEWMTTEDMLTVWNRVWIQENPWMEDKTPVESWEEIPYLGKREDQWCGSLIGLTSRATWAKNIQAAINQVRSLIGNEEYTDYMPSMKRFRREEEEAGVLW

Compound: CCc1ccc(S(=O)(=O)Nc2cc(SCC(=O)O)c(O)c3ccccc23)cc1
- IC50 [1]: 9.53 µM (active)

Compound: O=[N+]([O-])c1ccc(Sc2cccc[n+]2[O-])c2nonc12
- EC50 [2]: > 1.84 µM (active)
- IC50 [3]: 72.6 µM (active)
- AC50 [4]: 7.21 µM (active)

Compound: Oc1c(Cl)cc(Cl)c(Cl)c1Cc1c(O)c(Cl)cc(Cl)c1Cl [HEXACHLOROPHENE]
- IC50 [5]: 0.97 µM (active)
- IC50 [6]: > 10 µM (inactive)
